Assay results from patent publication US11707479B2, “Combination formulation of two antiviral compounds” (priority 2013, dated 2023).
Like-named read-outs stand apart in the source and are kept apart here.

Assays:
[1] = PK drug-drug interaction between SOF and Compound I; format: in vivo, human; conditions: for AUCinf % GLSM Ratio (SOF + Compound I/SOF) (90% CI) / AUClast % GLSM Ratio (SOF + Compound I/SOF) (90% CI) / Cmax % GLSM Ratio (SOF + Compound I/SOF) (90% CI): SOF 400 mg + Compound I 150 mg vs SOF 400 mg
[2] = Single and multiple oral doses of Compound I: pharmacokinetics; conditions: human, in vivo
[3] = Spray dry feed solution solvent evaluation: solubility; format: physicochemical; conditions: Ethanol, methanol, acetone, and dichloromethane
Method: The feed solution was initially evaluated for appropriate solvent with regard to solubility, stability, and viscosity. […] Ethanol and methanol-based feed stocks were assessed for preparation ease and spray dried at a range of inlet and outlet temperatures to assess the robustness of the spray dry process. Both solvents gave rapid dissolution of Compound I and copovidone.

[4] = Chemical stability in ethanolic feed solution; format: physicochemical
[5] = Food effect on Compound I solid dispersion as single agent; format: in vivo, human; conditions: Compound I 100 mg
genotype 1-6 HCV = assay: Compound I 3-day monotherapy study; format: in vivo, Hepatitis C virus
genotype 2 or 3 HCV = assay: Sofosbuvir 400 mg once daily plus other HCV therapeutics, SVR24; format: in vivo, Hepatitis C virus; conditions: genotype 2 or 3 HCV infected patients
Method: (§1) Safety and tolerability appeared similar across both dose levels. In addition, when sofosbuvir 400 mg once daily plus other HCV therapeutics were given to genotype 2 or 3 HCV infected patients, 100% SVR24 was observed.

[6] = Sofosbuvir single dose exposure, 200 mg tablets; format: in vivo, human; conditions: single doses up to 1200 mg
Method: (§2) The mean sofosbuvir major metabolite AUCtau for the 400 mg sofosbuvir dose is associated with approximately 77% of the maximal HCV RNA change from baseline achievable as determined by this model, a value which is on the cusp of the plateau of the exposure-response sigmoidal curve. In a sigmoidal Emax model, there is a relatively linear exposure-response relationship in the 20 to 80% maximal effect range. Therefore, given that sofosbuvir exposure with 200 mg tablets appears dose-proportional with single doses up to 1200 mg, doses below 400 mg are expected to yield considerable reductions in the magnitude of HCV RNA change from baseline.

HCV RNA = assay: Emax PK/PD modeling of sofosbuvir dose; parameters: species or system Hepatitis C virus; conditions: 400 mg sofosbuvir dose, Emax model
Method: The sofosbuvir dose selected for the tablet formulation is 400 mg once daily. Support for the 400 mg sofosbuvir dose can be derived from Emax PK/PD modeling with early virological and human exposure data which also supports the selection of a 400 mg sofosbuvir dose over others tested.
as §2

genotype 1 HCV = assay: Sofosbuvir 400 mg vs 200 mg once daily with additional HCV therapeutics for 24 weeks; format: in vivo, Hepatitis C virus
Method: as §1

[7] = SOF 400 mg + Compound I 150 mg, GLSM
[8] = SOF 400 mg single dose alone, GLSM
[9] = SOF 400 mg + Compound I 150 mg vs Compound I 150 mg
[10] = human, in vivo, SOF 400 mg + Compound I 150 mg, GLSM

For `C[C@H](NP(=O)(O)OC[C@H]1O[C@@H](n2ccc(=O)[nH]c2=O)[C@](C)(F)[C@@H]1O)C(=O)O` [SOF metabolite I], the “AUCinf % GLSM Ratio (SOF + Compound I/SOF) (90% CI)” value (shortened to “AUCinf % GLSM Ratio … (90% CI)”) [1] was 179.42 (165.03, 195.06) %, the “AUClast % GLSM Ratio (SOF + Compound I/SOF) (90% CI)” value (from here on “AUClast % GLSM Ratio … (90% CI)”) [1] was 182.35 (167.52, 198.50) % and the “Cmax % GLSM Ratio (SOF + Compound I/SOF) (90% CI)” value [1] was 161.68 (145.27, 179.94) %. For the same compound, the AUCinf [1, 7] was 3455.70 ng·h/mL, the AUClast [1, 7] was 3394.32 ng·h/mL and the Cmax [1, 7] was 736.88 ng/mL. It also gave an AUCinf [1, 8] of 1926.09 ng·h/mL, an AUClast [1, 8] of 1861.41 ng·h/mL and a Cmax [1, 8] of 455.77 ng/mL. The “increase in AUC when SOF coadministered with Compound I” value [1] was “approximately 1.8 fold” and the “increase in Cmax when SOF coadministered with Compound I” value [1] was “approximately 1.6 fold”.

With `COC[C@H]1C[C@@H](c2ncc(-c3ccc4c(c3)COc3cc5c(ccc6nc([C@@H]7CC[C@H](C)N7C(=O)[C@@H](NC(=O)OC)C(C)C)[nH]c65)cc3-4)[nH]2)N(C(=O)[C@H](NC(=O)OC)c2ccccc2)C1` [Compound I, methyl {(2S)-1-[(2S,5S)-2-(9-{2-[(2S,4S)-1-{(2R)-2-[(methoxycarbonyl)amino]-2-phenylacetyl}-4-(methoxymethyl)pyrrolidin-2-yl]-1H-imidazol-5-yl}-1,11-dihydroisochromeno[4′,3′ 6,7]naphtho[1,2-d]imidazol-2-yl)-5-methylpyrrolidin-1-yl]-3-methyl-1-oxobutan-2-yl}carbamate] the CL/F ([2]; 5 mg) was 58,398.0 mL/h, the CL/F ([2]; 50 mg) was 19,188.4 mL/h and the CL/F ([2]; 100 mg) was 24,617.9 mL/h. The CL/F ([2]; 450 mg) was 53,676.4 mL/h, the “solubility in feed solvent” value [3] was “excellent solubility” and the chemical stability [4] was “good chemical stability”. For the same compound, the Ctau ([1]; Compound I 150 mg multiple doses alone, GLSM) was 101.09 ng/mL, the “AUCtau % GLSM Ratio (SOF + Compound I/Compound I) (90% CI)” value [1, 9] was 111.71 (107.54, 116.04) % and the “Cmax % GLSM Ratio (SOF + Compound I/Compound I) (90% CI)” value [1, 9] was 105.94 (101.86, 110.20) %. For the same compound, the “Ctau % GLSM Ratio (SOF + Compound I/Compound I) (90% CI)” value [1, 9] was 117.61 (111.94, 123.57) %, the Ctau [1, 7] was 118.90 ng/mL and the AUC ([1]; human, plasma, oral, Compound I 150 mg multiple doses alone, GLSM) was 7280 ng·h/mL. It also gave a Cmax ([1]; human, plasma, oral, Compound I 150 mg multiple doses alone, GLSM, read-out: Cmax) of 932 ng/mL, an AUC ([1]; human, plasma, oral, SOF 400 mg + Compound I 150 mg, GLSM) of 8140 ng·h/mL and a Cmax ([1]; human, plasma, oral, SOF 400 mg + Compound I 150 mg, GLSM, read-out: Cmax) of 988 ng/mL. For the same compound, the “AUCinf % GLSM Ratio (Fed/Fasted)” value ([5]; HFM) was 86.30%, the “AUClast % GLSM Ratio (Fed/Fasted)” value ([5]; HFM) was 86.02% and the “Cmax % GLSM Ratio (Fed/Fasted)” value ([5]; HFM) was 75.02%. The “AUCinf % GLSM Ratio (Fed/Fasted)” value ([5]; Light Breakfast) was 124.72%, the “AUClast % GLSM Ratio (Fed/Fasted)” value ([5]; Light Breakfast) was 124.84% and the “Cmax % GLSM Ratio (Fed/Fasted)” value ([5]; Light Breakfast) was 134.89%. For the same compound, the “activity against genotype 1-6 HCV” value (genotype 1-6 HCV) was “potent activity”.

For `C[C@@]1(F)[C@H](O)[C@@H](CO)O[C@H]1n1ccc(=O)[nH]c1=O` [SOF metabolite II], the “AUCinf % GLSM Ratio … (90% CI)” value [1] was 116.32 (110.99, 121.90) %, the “AUClast % GLSM Ratio … (90% CI)” value [1] was 112.86 (107.90, 118.05) % and the “Cmax % GLSM Ratio (SOF + Compound I/SOF) (90% CI)” value [1] was 64.17 (58.45, 70.44) %. The AUCinf [1, 7] was 13,774.96 ng · h/mL, the AUClast [1, 7] was 12,610.86 ng · h/mL and the Cmax [1, 7] was 693.62 ng/mL. The AUCinf [1, 8] was 11,842.52 ng · h/mL, the AUClast [1, 8] was 11,173.87 ng · h/mL and the Cmax [1, 8] was 1080.97 ng/mL.

For `CC(C)OC(=O)[C@H](C)N[P@](=O)(OC[C@H]1O[C@@H](n2ccc(=O)[nH]c2=O)[C@](C)(F)[C@@H]1O)Oc1ccccc1` [sofosbuvir, (S)-isopropyl 2-(((S)-(((2R,3R,4R,5R)-5-(2,4-dioxo-3,4-dihydropyrimidin-1(2H)-yl)-4-fluoro-3-hydroxy-4-methyltetrahydrofuran-2-yl)methoxy)(phenoxy)phosphoryl)amino)propanoate, reference compound], the SVR24 (genotype 2 or 3 HCV) was 100%, the “dose proportionality of exposure” value [6] was “dose-proportional” and the “fraction of the maximal HCV RNA change from baseline achievable, associated with mean major metabolite AUCtau” value (HCV RNA) was “approximately 77%”. The “AUCinf % GLSM Ratio … (90% CI)” value [1] was 237.77 (214.27, 263.85) %, the “AUClast % GLSM Ratio … (90% CI)” value [1] was 238.10 (214.62, 264.16) % and the “Cmax % GLSM Ratio (SOF + Compound I/SOF) (90% CI)” value [1] was 181.06 (149.43, 219.38) %. For the same compound, the AUCinf [1, 8] was 1159.50 ng·h/mL, the “increase in AUC when SOF coadministered with Compound I” value [1] was roughly 2.4 fold and the “increase in Cmax when SOF coadministered with Compound I” value [1] was “approximately 1.8 fold”. For the same compound, the AUC(0-inf) [1, 10] was 2760 ng·h/mL, the AUC(0-t) [1, 10] was 2750 ng·h/mL and the Cmax ([1]; human, in vivo, SOF 400 mg + Compound I 150 mg, GLSM, read-out: Cmax) was 1590 ng/mL. For the same compound, the AUC(0-t) ([1]; human, in vivo, SOF 400 mg single dose alone, GLSM) was 1150 ng·h/mL, the Cmax ([1]; human, in vivo, SOF 400 mg single dose alone, GLSM, read-out: Cmax) was 880 ng/mL and the “Safety and tolerability across both dose levels” value (genotype 1 HCV; 400 mg vs 200 mg once daily) was “similar”. The “SVR rates, 400 mg once daily compared to 200 mg once daily” value (genotype 1 HCV; genotype 1 HCV infected patients, with additional HCV therapeutics for 24 weeks) was “higher SVR rates”.
